Measured values from patent US11692004B2, “Substituted pyrazole compound, preparation method therefor, pharmaceutical composition and medical use thereof” (JIANGSU VANGUARD PHARMACEUTICAL CO., LTD., priority 2018, dated 2023).
Values after ≈ are worked out from the molar mass of the structure shown.

Key:
[1] = Stability studies (high humidity, illumination, high temperature, seven days); type: physicochemical; settings: 25° C. ± 2° C., 60% ± 5 RH, 4500 ± 500 LX
Description: The stability of samples from some embodiments were examined under high humidity (25° C.±2° C., 90%±5RH), illumination (25° C.±2° C., 60%±5RH, 4500±500LX), high temperature (60° C.±2° C., 60%±5RH), which were stored in the stability incubator for seven days, for the changes of related substances and contents, as shown in Table 2.

[2] = Solubility test in distilled water; type: physicochemical; settings: thermodynamic from solid, 25° C.
Description: Test method: the dry compound was slowly dissolved into about 0.5 ml distilled water in a 5 ml EP tube until saturation (turbid after ultra-sonic vibration at 25° C.). The solution was filtered and moved to another clean 5 ml EP tube (pre-weighed) and the tube was weighed again to calculate the solution weight. The solution was freeze dried. The remaining solute was weighed to calculate the solvent weight, and then the compound solubility in water was determined.

PC12 cells = experiment: In-vitro neuroprotection-I (H2O2 injury, MTT); type: cell-based; settings: Rattus norvegicus, PC-12, 48 h compound, then 200 μM H2O2 24 h, MTT survival rate
Description: All samples were made into 60 mM stock solution by DMSO, which were 200 times diluted to 300 μM by medium. And the final concentration was further diluted into different concentrations by media.
Control: Normal cell-plating and same cell medium as other group. 24 hours later, the medium was discarded. Incubate the cell in new media for 24 hours. No compound and hydrogen peroxide treatment. Other steps were the same as the sample test as mentioned below did.
Blank: no cell plating, cell medium, and other steps were the same as the sample test as mentioned below did.
(§1) After resuscitating, the PC12 cells were cultured in RPMI-1640 containing 10% horse serum and 5% Fetus Bovine Serum (FBS) under 5% CO2 at 37° C. for two weeks. The medium was changed every other day. The compounds were diluted into solutions of 12.5, 25, 50, 100, 200, 300 μM with culture medium (except that examples 33-45 with additional solutions of 400 μM and 500 μM). The PC 12 cells were seeded into a 96-well plate at a density of 8×10^3 cells/well and cultured in a 37° C., 5% CO2 incubator for 24 hours. Removed the medium, the cells were added with the compound solutions of different concentrations as test solutions for another 48 h incubation in a 37° C., 5% CO2 incubator. After the incubation, apart from the blank and control groups, the wells (including 0 μM drug group) were added to the medium-prepared 200 μM H2O2, and continued for another 24 h incubation in a 37° C., 5% CO2 incubator.
After the incubation, the wells were added with 20 μL 5 mg/mL MTT and incubated for 4 hours at 37° C. Carefully removed the medium and added 150 μL DMSO. The plates were placed on an enzyme-labeled instrument and vibrated for 5 min. The absorbance Atest solution were obtained at 490 nm with the Ablank of the well without cells and the Acontrol of the well with untreated cells. The survival rate of the cells in every well by the formula survival rate (%)=(Atest solution−Ablank)/(Acontrol−Ablank)*100%.

[3] = test system: MCAO model (middle cerebral artery ischemia-reperfusion); experiment: In vivo drug efficacy test of MCAO model; settings: SD rats, MCAO 2 h then reperfusion, tail vein infusion 30 min; for Cerebral infarction area (%): TTC staining, infarct area to whole brain area; for Improvements of nerve function (%): score at 24 h versus model control
[4] = test system: B6SJL-Tg (SOD1*G93A) mice; experiment: In vivo efficacy test of ALS model; parameters: key to Rotarod Time / PaGE: “+” indicates a significant difference compared with the solvent group, p < 0.05; settings: for Plasma SOD concentration on day 28th(U/mL): ELISA; for PaGE / Rotarod Time: versus solvent group
Description: B6SJL-Tg (SOD1*G93A) mice were intraperitoneally administered single-doses once a day for 4 consecutive weeks. The weight of the mice was determined before and after the administration every week. The motor function of the mice was determined by rota-rod and PaGE tests with the time points before and after 4-week administration. The mice plasma was collected and detected for SOD levels through ELISA. The Index Evaluation described below was used to evaluate the efficacy of the compounds of the examples in ALS model and to what extent the compounds of the examples improve the survival period and motor activity.
The animals were delivered to the SPF animal room and raised for more than one week. Five days before the test, the mice were accustomed to a round of tests per day. The mice were randomly divided into groups according to their body weights, 8 mice for each group. Among them, the solvent group was given with the same volume of solvent (physiological saline) every day.
The mice were administered with a volume of 10 ml/kg.
i.p once a day for 4 weeks.
Index evaluation time started from the beginning of the experiment to the death of the animals.
1) ALS onset time: For 2 consecutive observation days, the mice appeared limb, tremor and/or limb weakness at tail suspension were determined as the ALS onset. The determination of limb weakness: the mice were placed on the rota-rod device with a diameter of 3.5 cm. The speed is set to 15 rpm to record the longest fall latency divided by 420 s. The mice of less 420 s were determined as limb weakness.
2) Rota-rod Test: The mice were placed on the rota-rod device with a diameter of 3.5 cm. The speed is set to 12 rpm to record the longest fall latency divided by 180 s. The latency of more than 180 s was recorded as 180 s, and actual time was recorded when less than 180 s.
3) Paw Grip Endurance (PaGE) Test: The mice were placed on the traditional wire grid. The grid was gently shaken to cause the mice to tighten its grip on the wires then inverted, and time recording commenced. The time was recorded until the mouse lost its grip in hind limbs divided by 90 s. The time more than 90 s was recorded as 90 s, while the time less than 90 s was recorded by its actual time. The test was completed in triplicate with the highest score used for analysis.
5) Plasma SOD concentration: The blood was collected and mixed with EP tube containing heparin before and after administration at the 4th week, and then centrifuged at 1000 g for 10 min. The plasma was collected and stored in aliquots at −70° C. ELISA kit was used to detect plasma SOD levels.

Cytotoxic test (MTT) = type: cell-based; settings: rat, PC12 cells, 48 h incubation
Description: as §1, with “(except” for “(except that”, “PC12” for “PC 12”, “1.2×10^4” for “8×10^3”, “Remove” for “Removed”, “incubator.” for “incubator. After the incubation, apart from the blank and control groups, the wells (including 0 μM drug group) were added to the medium-prepared 200 μM H2O2, and continued for another 24 h incubation in a 37° C., 5% CO2 incubator.”
After the incubation, the wells were added with 20 μL 5 mg/mL MTT and incubated for 4 hours at 37° C. Carefully removed the medium and added 150 μL DMSO. The plates were placed on an enzyme-labeled instrument and vibrated for 5 min. The absorbance Atest solution were obtained at 490 nm with the Ablank of the well without cells and the Acontrol of the well with untreated cells. The survival rates of the cells in every well were calculated by the formula as Survival rate (%)=(Atest solution−Ablank)/(Acontrol−Ablank)*100%

[5] = 86 μmol/kg i.p. once a day for 4 weeks

SMILES | Content Drop, Illumination [1] | Stability, Illumination: changes of related substances and contents [1] | solubility [2] | EC50 (PC12 cells) | Cerebral infarction area (%) [3] | Improvements of nerve function (%) [3] | Onset time [4, 5] | Survival time [4, 5] | Plasma SOD concentration on day 28th(U/mL) [4, 5] | PaGE [4, 5] | Rotarod Time [4, 5] | IC50 at 48 h (Cytotoxic test (MTT)) | Onset time(d) [4, 5] | Fall latency in rota-rod test and PaGE test ([4]; 28-day drug intervention)
CC1=NN(c2ccccc2)C(=O)C1 [Edaravone, edaravone, reference compound] | 4% | dropped significantly | < 1 mg/mL | 171 µM | 20.1% | 15.7% | 116.14 ± 7.82 days | 147.00 ± 8.94 days | 153.88 ± 9.91* U/mL | + | + |  |  | 
Cc1cc(OC2O[C@H](CO)[C@@H](O)[C@H](O)[C@H]2O)n(-c2ccccc2)n1 (stereo partly drawn) [Compound 33, 1-phenyl-3-methyl-5-O-D-glucoside-pyrazole] |  |  | 10.1 mg/mL (≈ 30 mM) | 112 µM | 14.0% | 24.0% |  | 149.88 ± 8.37 days | 155.18 ± 15.37* U/mL | + | + | > 300 µM | 118.25 ± 5.87* d | better than the marketed drug edaravone
